# Measurements from patent US20230085307A1, “PYRIDAZINONE COMPOUND AND HERBICIDE” (NISSAN CHEMICAL CORPORATION, priority 2019, published 2023).
# Assays:
# Chinese sprangletop = test: Test Example 3: herbicidal effect by foliage application, Wagner pot (Table 18, symbol D); type: in vivo, chinese sprangletop (Leptochloa chinensis); settings: for herbicidal effect on D (Chinese sprangletop), rating 0-5: 320 g/ha; for herbicidal effect on D: Chinese sprangletop: amount of applied herbicide 320 g/ha
# Method in brief: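 Plants were sown in alluvial soil held under 0.1–0.5 cm standing water and grown 14 days in a greenhouse at 25–30 °C. An emulsifiable formulation, water-diluted to the set dose, was then sprayed onto the foliage, and effects were scored three weeks later using previously defined criteria.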
# velvetleaf = test: Test Example 5: herbicidal effect by foliage application, plastic box (Table 20, symbol M); type: in vivo, velvetleaf (Abutilon theophrasti); settings: foliage application
# Method in brief: (§1)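 Sow seeds spot-wise in sterilized diluvial soil; cover with ~1.5 cm soil. Grow 14 days in greenhouse, 25° C. to 30° C. Spray foliage with emulsion diluted to predetermined amount. Rate effect after 3 weeks.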
# blackgrass = test: Test Example 4: herbicidal effect by soil treatment (Table 19, symbol J); type: in vivo, blackgrass (Alopecurus myosuroides); settings: for J: blackgrass, herbicidal effect rating: AAH 320 g/ha
# Method in brief: (§2)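 Soil-surface application: an emulsion agent diluted with water to the predetermined dose is sprayed uniformly over seeds lying under roughly 1.5 cm of sterilized diluvial soil. Boxes stay in a greenhouse at 25° C. to 30° C. Three weeks later, each species is graded on previously defined criteria.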
# wild oat [1] = test: Test Example 5: herbicidal effect by foliage application, plastic box (Table 20, symbol I); type: in vivo, wild oat (Avena fatua); settings: foliage application
# Method in brief: as §1
# late watergrass = test: Test Example 2: herbicidal activity, application during weed generation under submerged conditions (Table 17, symbol A); type: in vivo, late watergrass (Echinochloa oryzicola); settings: AAH 320 g/ha; application during weed generation, submerged conditions
# Method in brief: (§3)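 Mixed weed seedlings in alluvial soil under a 4 cm water layer, greenhouse-grown at 25–30° C. Compound given as a diluted emulsion into the floodwater at the 1–2 leaf stage; response graded after three weeks.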
# persian speedwell [2] = test: Test Example 5: herbicidal effect by foliage application, plastic box (Table 20, symbol R); type: in vivo, Persian speedwell (Veronica persica); settings: foliage application
# Method in brief: as §1
# Italian ryegrass = test: Test Example 4: herbicidal effect by soil treatment (Table 19, symbol K); type: in vivo, Italian ryegrass (Lolium multiflorum); settings: for K: Italian ryegrass, herbicidal effect rating: AAH 320 g/ha; for herbicidal effect on K: Italian ryegrass: amount of applied herbicide 320 g/ha
# Method in brief: as §2
# lambsquarters [3] = test: Test Example 4: herbicidal effect by soil treatment (Table 19, symbol O); type: in vivo, lambsquarters (Chenopodium album); settings: for O: lambsquarters, herbicidal effect rating: AAH 320 g/ha; for herbicidal effect on O: lambsquarters: amount of applied herbicide 320 g/ha
# Method in brief: as §2
# windgrass [4] = test: Test Example 5: herbicidal effect by foliage application, plastic box (Table 20, symbol L); type: in vivo, windgrass (Apera spica-venti); settings: foliage application
# Method in brief: as §1
# wild oat [5] = test: Test Example 4: herbicidal effect by soil treatment (Table 19, symbol I); type: in vivo, wild oat (Avena fatua); settings: for I: wild oat, herbicidal effect rating: AAH 320 g/ha; for herbicidal effect on I: wild oat: amount of applied herbicide 320 g/ha
# Method in brief: as §2
# southern crabgrass = test: Test Example 4: herbicidal effect by soil treatment (Table 19, symbol F); type: in vivo, southern crabgrass (Digitaria ciliaris); settings: for F: southern crabgrass, herbicidal effect rating: AAH 320 g/ha; for herbicidal effect on F: southern crabgrass: amount of applied herbicide 320 g/ha
# Method in brief: as §2
# barnyard grass = test: Test Example 5: herbicidal effect by foliage application, plastic box (Table 20, symbol H); type: in vivo, barnyard grass (Echinochloa crus-galli); settings: foliage application
# Method in brief: as §1
# persian speedwell [6] = test: Test Example 4: herbicidal effect by soil treatment (Table 19, symbol R); type: in vivo, Persian speedwell (Veronica persica); settings: for R: persian speedwell, herbicidal effect rating: AAH 320 g/ha; for herbicidal effect on R: persian speedwell: amount of applied herbicide 320 g/ha
# Method in brief: as §2
# lambsquarters [7] = test: Test Example 5: herbicidal effect by foliage application, plastic box (Table 20, symbol O); type: in vivo, lambsquarters (Chenopodium album); settings: foliage application
# Method in brief: as §1
# oval-leafed pondweed = test: Test Example 2: herbicidal activity, application during weed generation under submerged conditions (Table 17, symbol C); type: in vivo, oval-leafed pondweed (Monochoria vaginalis); settings: AAH 320 g/ha; application during weed generation, submerged conditions
# Method in brief: as §3
# Japanese bulrush = test: Test Example 1: herbicidal activity, application before weed generation under submerged conditions (Table 16, symbol B); type: in vivo, Japanese bulrush (Schoenoplectus juncoides); settings: 320 g/ha applied herbicide
# Method in brief: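 Submerged Wagner pots (alluvial soil, 4 cm water) sown with weed seeds and planted with 2.5-leaf rice seedlings; emulsifiable concentrate diluted in water applied to water surface on sowing day. Held in greenhouse at 25-30 °C; injury scored 0-5 by herbicidal rate after three weeks.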
# windgrass [8] = test: Test Example 4: herbicidal effect by soil treatment (Table 19, symbol L); type: in vivo, windgrass (Apera spica-venti); settings: amount of applied herbicide 320 g/ha
# Method in brief: as §2
# [9] = 320 g/ha, 3 weeks after application
# [10] = AAH 320 g/ha, three weeks after application
# [11] = AAH 320 g/ha, evaluated three weeks after application
# [12] = 320 g/ha, evaluated three weeks after application
Compound,"herbicidal effect on D (Chinese sprangletop), rating 0-5 (Chinese sprangletop)","J: blackgrass, herbicidal effect rating (blackgrass)","herbicidal effect rating, A: late watergrass (late watergrass)","K: Italian ryegrass, herbicidal effect rating (Italian ryegrass)","O: lambsquarters, herbicidal effect rating (lambsquarters [3])","I: wild oat, herbicidal effect rating (wild oat [5])","F: southern crabgrass, herbicidal effect rating (southern crabgrass)","R: persian speedwell, herbicidal effect rating (persian speedwell [6])","herbicidal effect rating, C: oval-leafed pondweed (oval-leafed pondweed)",Herbicidal effect on B: Japanese bulrush (grade 0-5) (Japanese bulrush),herbicidal effect on D: Chinese sprangletop (Chinese sprangletop),"M: velvetleaf, herbicidal effect (criteria 0-5) (velvetleaf; [11])","I: wild oat, herbicidal effect (criteria 0-5) (wild oat [1]; [11])","R: persian speedwell, herbicidal effect (criteria 0-5) (persian speedwell [2]; [11])",herbicidal effect on K: Italian ryegrass (Italian ryegrass),herbicidal effect on O: lambsquarters (lambsquarters [3]),"L: windgrass, herbicidal effect (criteria 0-5) (windgrass [4]; [11])",herbicidal effect on I: wild oat (wild oat [5]),herbicidal effect on F: southern crabgrass (southern crabgrass),"H: barnyard grass, herbicidal effect (criteria 0-5) (barnyard grass; [11])",further results
Cc1nn(C)c(=O)c(-c2c(-c3ccc(OC(F)F)cc3)sc3ccccc23)c1O [1-201],4 (Herbicidal rate of 70% or more and less than 90%),0 (Herbicidal rate of 5% or less (almost no effect)),0 (Herbicidal rate of 5% or less (almost no effect)),4 (Herbicidal rate of 70% or more and less than 90%),5 (Herbicidal rate of 90% or more (almost completely withered)),0 (Herbicidal rate of 5% or less (almost no effect)),2 (Herbicidal rate of 20% or more and less than 40%),5 (Herbicidal rate of 90% or more (almost completely withered)),3 (Herbicidal rate of 40% or more and less than 70%),4 (Herbicidal rate of 70% or more and less than 90%),–,–,–,–,–,–,–,–,–,–,effect on velvetleaf (M) (velvetleaf; [9]): 5 (Herbicidal rate of 90% or more (almost completely withered)); effect on wild oat (I) (wild oat [1]; [9]): 2 (Herbicidal rate of 20% or more and less than 40%); effect on persian speedwell (R) (persian speedwell [2]; [9]): 5 (Herbicidal rate of 90% or more (almost completely withered)); effect on windgrass (L) (windgrass [4]; [9]): 4 (Herbicidal rate of 70% or more and less than 90%); effect on barnyard grass (H) (barnyard grass; [9]): 5 (Herbicidal rate of 90% or more (almost completely withered)); effect on lambsquarters (O) (lambsquarters [7]; [9]): 5 (Herbicidal rate of 90% or more (almost completely withered))
Cc1nn(C)c(=O)c(-c2c(-c3ccc(OCC(F)(F)F)cc3)sc3ccccc23)c1O [1-140],3 (Herbicidal rate of 40% or more and less than 70%),0 (Herbicidal rate of 5% or less (almost no effect)),3 (Herbicidal rate of 40% or more and less than 70%),5 (Herbicidal rate of 90% or more (almost completely withered)),5 (Herbicidal rate of 90% or more (almost completely withered)),0 (Herbicidal rate of 5% or less (almost no effect)),5 (Herbicidal rate of 90% or more (almost completely withered)),5 (Herbicidal rate of 90% or more (almost completely withered)),0 (Herbicidal rate of 5% or less (almost no effect)),2 (Herbicidal rate of 20% or more and less than 40%),–,–,–,–,–,–,–,–,–,–,"M: velvetleaf, herbicidal effect (velvetleaf; [10]): 4 (Herbicidal rate of 70% or more and less than 90%); I: wild oat, herbicidal effect (wild oat [1]; [10]): 0 (Herbicidal rate of 5% or less (almost no effect)); R: persian speedwell, herbicidal effect (persian speedwell [2]; [10]): 5 (Herbicidal rate of 90% or more (almost completely withered)); L: windgrass, herbicidal effect (windgrass [4]; [10]): 3 (Herbicidal rate of 40% or more and less than 70%); H: barnyard grass, herbicidal effect (barnyard grass; [10]): 5 (Herbicidal rate of 90% or more (almost completely withered)); O: lambsquarters, herbicidal effect (lambsquarters [7]; [10]): 5 (Herbicidal rate of 90% or more (almost completely withered))"
COCCSCc1ccc(-c2sc3ccc(F)cc3c2-c2c(O)c(C)nn(C)c2=O)cc1 [2-327],–,–,0 (Herbicidal rate of 5% or less (almost no effect)),–,–,–,–,–,0 (Herbicidal rate of 5% or less (almost no effect)),3 (Herbicidal rate of 40% or more and less than 70%),3 (Herbicidal rate of 40% or more and less than 70%),5 (Herbicidal rate of 90% or more (almost completely withered)),3 (Herbicidal rate of 40% or more and less than 70%),5 (Herbicidal rate of 90% or more (almost completely withered)),4 (Herbicidal rate of 70% or more and less than 90%),4 (Herbicidal rate of 70% or more and less than 90%),5 (Herbicidal rate of 90% or more (almost completely withered)),0 (Herbicidal rate of 5% or less (almost no effect)),2 (Herbicidal rate of 20% or more and less than 40%),5 (Herbicidal rate of 90% or more (almost completely withered)),"herbicidal effect on L: windgrass (windgrass [8]): 0 (Herbicidal rate of 5% or less (almost no effect)); herbicidal effect on R: persian speedwell (persian speedwell [6]): 5 (Herbicidal rate of 90% or more (almost completely withered)); O: lambsquarters, herbicidal effect (criteria 0-5) (lambsquarters [7]; [11]): 5 (Herbicidal rate of 90% or more (almost completely withered))"
Cc1nn(C)c(=O)c(-c2c(-c3ccc(OC(F)F)cc3)sc3ccc(F)cc23)c1OC(=O)c1cccs1 [2-288],–,–,3 (Herbicidal rate of 40% or more and less than 70%),–,–,–,–,–,3 (Herbicidal rate of 40% or more and less than 70%),5 (Herbicidal rate of 90% or more (almost completely withered)),4 (Herbicidal rate of 70% or more and less than 90%),5 (Herbicidal rate of 90% or more (almost completely withered)),1 (Herbicidal rate of 5% or more and less than 20%),5 (Herbicidal rate of 90% or more (almost completely withered)),4 (Herbicidal rate of 70% or more and less than 90%),4 (Herbicidal rate of 70% or more and less than 90%),3 (Herbicidal rate of 40% or more and less than 70%),0 (Herbicidal rate of 5% or less (almost no effect)),3 (Herbicidal rate of 40% or more and less than 70%),5 (Herbicidal rate of 90% or more (almost completely withered)),"herbicidal effect on J: blackgrass (blackgrass; amount of applied herbicide 320 g/ha): 0 (Herbicidal rate of 5% or less (almost no effect)); herbicidal effect on R: persian speedwell (persian speedwell [6]): 5 (Herbicidal rate of 90% or more (almost completely withered)); O: lambsquarters, herbicidal effect (criteria 0-5) (lambsquarters [7]; [11]): 5 (Herbicidal rate of 90% or more (almost completely withered))"
CCCC(=O)Oc1c(C)nn(C)c(=O)c1-c1c(-c2ccc(C(C)=O)cc2)sc2ccc(F)cc12 [2-078],5 (Herbicidal rate of 90% or more (almost completely withered)),–,3 (Herbicidal rate of 40% or more and less than 70%),–,–,–,–,–,4 (Herbicidal rate of 70% or more and less than 90%),4 (Herbicidal rate of 70% or more and less than 90%),–,–,–,–,–,–,–,–,–,–,"herbicidal effect on M: velvetleaf (velvetleaf; [12]): 5 (Herbicidal rate of 90% or more (almost completely withered)); herbicidal effect rating, J: blackgrass (blackgrass; 320 g/ha): 1 (Herbicidal rate of 5% or more and less than 20%); herbicidal effect on I: wild oat (wild oat [1]; [12]): 2 (Herbicidal rate of 20% or more and less than 40%); herbicidal effect on R: persian speedwell (persian speedwell [2]; [12]): 5 (Herbicidal rate of 90% or more (almost completely withered)); herbicidal effect rating, K: Italian ryegrass (Italian ryegrass; 320 g/ha): 4 (Herbicidal rate of 70% or more and less than 90%); herbicidal effect rating, O: lambsquarters (lambsquarters [3]; 320 g/ha): 4 (Herbicidal rate of 70% or more and less than 90%); herbicidal effect on L: windgrass (windgrass [4]; [12]): 5 (Herbicidal rate of 90% or more (almost completely withered)); herbicidal effect rating, I: wild oat (wild oat [5]; 320 g/ha): 0 (Herbicidal rate of 5% or less (almost no effect)); herbicidal effect rating, F: southern crabgrass (southern crabgrass; 320 g/ha): 0 (Herbicidal rate of 5% or less (almost no effect)); herbicidal effect on H: barnyard grass (barnyard grass; [12]): 2 (Herbicidal rate of 20% or more and less than 40%); herbicidal effect rating, R: persian speedwell (persian speedwell [6]; 320 g/ha): 5 (Herbicidal rate of 90% or more (almost completely withered)); herbicidal effect on O: lambsquarters (lambsquarters [7]; [12]): 4 (Herbicidal rate of 70% or more and less than 90%)"
